Reference: patent US8455515B2, “Substituted 4-phenyltetrahydroisoquinolines, process for their preparation, pharmaceutical compositions and therapeutic use” (Sanofi, priority 2005, dated 2013)
Where a name gives a salt, the structure may show the parent alone.

Experiments:
NHE-1 = NHE-1 (Homo sapiens, UniProt P19634); test: inhibitory action on NHE subtypes: NHE-1; conditions: therapeutically utilizable concentration range
NHE-5 = molecular target: T1, NHE-5 (Homo sapiens, UniProt Q14940); test: inhibitory action on NHE subtypes: NHE-5; conditions: therapeutically utilizable concentration range
T1 sequence (Q14940 1-896): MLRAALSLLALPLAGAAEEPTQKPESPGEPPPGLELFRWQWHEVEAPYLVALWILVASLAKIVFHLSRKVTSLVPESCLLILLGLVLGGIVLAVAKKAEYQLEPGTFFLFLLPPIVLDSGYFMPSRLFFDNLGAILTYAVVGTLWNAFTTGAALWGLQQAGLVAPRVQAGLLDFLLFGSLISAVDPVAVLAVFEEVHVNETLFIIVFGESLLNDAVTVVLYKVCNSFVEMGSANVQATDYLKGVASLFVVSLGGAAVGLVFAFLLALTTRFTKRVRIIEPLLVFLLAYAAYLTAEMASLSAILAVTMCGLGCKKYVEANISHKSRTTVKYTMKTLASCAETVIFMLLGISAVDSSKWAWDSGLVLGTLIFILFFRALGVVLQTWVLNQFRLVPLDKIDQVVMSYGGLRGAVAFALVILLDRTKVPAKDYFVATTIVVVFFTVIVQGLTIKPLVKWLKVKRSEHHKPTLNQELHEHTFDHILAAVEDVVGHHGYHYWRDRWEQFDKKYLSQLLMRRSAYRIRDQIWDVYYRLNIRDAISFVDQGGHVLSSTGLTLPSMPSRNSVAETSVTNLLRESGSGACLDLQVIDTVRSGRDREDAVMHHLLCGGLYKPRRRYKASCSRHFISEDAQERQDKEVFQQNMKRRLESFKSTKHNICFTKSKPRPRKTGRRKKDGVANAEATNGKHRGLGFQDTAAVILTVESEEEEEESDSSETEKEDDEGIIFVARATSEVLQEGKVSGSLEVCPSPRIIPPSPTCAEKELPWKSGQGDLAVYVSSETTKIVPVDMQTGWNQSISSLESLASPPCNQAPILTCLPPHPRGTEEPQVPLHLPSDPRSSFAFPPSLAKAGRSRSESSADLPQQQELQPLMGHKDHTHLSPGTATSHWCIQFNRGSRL

NHE [1] = molecular target: T2, NHE (Homo sapiens, UniProt P48764); test: inhibitory action on NHE subtypes: NHE; conditions: therapeutically utilizable concentration range
T2 sequence (P48764 26-834): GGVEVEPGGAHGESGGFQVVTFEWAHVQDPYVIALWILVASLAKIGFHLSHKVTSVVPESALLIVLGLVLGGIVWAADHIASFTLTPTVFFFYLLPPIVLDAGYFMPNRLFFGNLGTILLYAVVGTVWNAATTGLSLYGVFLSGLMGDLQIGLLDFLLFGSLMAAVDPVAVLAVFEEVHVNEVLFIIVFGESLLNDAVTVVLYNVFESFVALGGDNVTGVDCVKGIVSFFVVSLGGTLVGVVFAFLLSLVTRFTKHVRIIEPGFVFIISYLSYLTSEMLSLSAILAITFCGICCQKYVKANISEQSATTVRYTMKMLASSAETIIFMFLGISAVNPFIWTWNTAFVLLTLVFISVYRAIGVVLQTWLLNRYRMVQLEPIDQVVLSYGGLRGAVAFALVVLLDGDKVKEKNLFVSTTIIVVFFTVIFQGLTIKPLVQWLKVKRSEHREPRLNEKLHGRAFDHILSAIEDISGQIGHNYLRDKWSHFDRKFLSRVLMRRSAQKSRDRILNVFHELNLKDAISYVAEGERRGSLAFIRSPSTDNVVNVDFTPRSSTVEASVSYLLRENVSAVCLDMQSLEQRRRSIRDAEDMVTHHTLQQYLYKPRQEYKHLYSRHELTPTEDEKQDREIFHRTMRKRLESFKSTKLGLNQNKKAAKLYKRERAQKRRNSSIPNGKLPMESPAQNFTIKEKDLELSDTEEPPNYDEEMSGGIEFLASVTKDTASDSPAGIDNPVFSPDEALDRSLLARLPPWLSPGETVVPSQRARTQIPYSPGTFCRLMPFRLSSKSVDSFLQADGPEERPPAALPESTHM

NHE-2 = molecular target: T3, NHE-2 (Homo sapiens, UniProt Q9UBY0); test: inhibitory action on NHE subtypes: NHE-2; conditions: therapeutically utilizable concentration range
T3 sequence (Q9UBY0 1-812): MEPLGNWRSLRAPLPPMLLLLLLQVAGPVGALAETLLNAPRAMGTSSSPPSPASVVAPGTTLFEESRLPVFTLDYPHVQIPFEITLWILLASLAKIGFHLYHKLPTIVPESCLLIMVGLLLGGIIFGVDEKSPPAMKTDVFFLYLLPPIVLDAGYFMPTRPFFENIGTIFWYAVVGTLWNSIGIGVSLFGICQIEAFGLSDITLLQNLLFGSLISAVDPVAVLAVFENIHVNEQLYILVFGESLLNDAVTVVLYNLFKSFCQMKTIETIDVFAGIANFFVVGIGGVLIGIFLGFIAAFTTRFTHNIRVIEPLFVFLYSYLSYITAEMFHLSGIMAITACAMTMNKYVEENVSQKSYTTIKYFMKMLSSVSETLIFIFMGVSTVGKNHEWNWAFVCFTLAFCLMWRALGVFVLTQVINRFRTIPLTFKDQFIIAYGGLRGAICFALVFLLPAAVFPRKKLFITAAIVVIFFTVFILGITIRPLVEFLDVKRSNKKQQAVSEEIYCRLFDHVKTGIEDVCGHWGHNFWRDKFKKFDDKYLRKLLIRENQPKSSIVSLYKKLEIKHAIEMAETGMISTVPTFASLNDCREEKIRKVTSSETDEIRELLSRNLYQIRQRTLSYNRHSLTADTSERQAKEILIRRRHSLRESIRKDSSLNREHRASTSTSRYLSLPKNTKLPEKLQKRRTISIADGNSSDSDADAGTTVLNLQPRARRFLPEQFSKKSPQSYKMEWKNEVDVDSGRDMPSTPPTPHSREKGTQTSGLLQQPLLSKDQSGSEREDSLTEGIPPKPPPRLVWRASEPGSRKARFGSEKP

[2] = tested on: adrenergic alpha-2 receptor; conditions: cited from earlier work
imidazoline receptor = conditions: cited from earlier work
hippocampus sections = test: long-term experiments on hippocampus sections (in vitro), weak tetanus early LTP in CA 1; parameters: species or system rats; conditions: rat hippocampus sections, 10 μM
NHE [3] = molecular target: T2, NHE; test: recovery of intracellular pH in LAP1 cells expressing NHE (FLIPR, BCECF); format: cell-based; conditions: LAP1 cells stably expressing NHE, pH recovery after acidification
Method: NHE and NHE5 Test Description:
In this test, the recovery in the intracellular pH (pHi) of LAP1 cells, which stably express the different subtypes of the sodium-proton exchanger (NHE), after an acidification was determined. This recovery sets in even under bicarbonate-free conditions in the case of functioning NHE. To this end, the pHi was determined with the pH-sensitive fluorescent dye BCECF (Molecular Probes, Eugene, Oreg., USA; the precursor BCECF-AM is used). The cells were first incubated with BCECF (5 μM BCECF-AM) in NH4Cl buffer (NH4Cl buffer: 115 mM cholineCl, 20 mM NH4Cl, 5 mM KCl, 1 mM CaCl2, 1 mM MgCl2, 20 mM Hepes, 5 mM glucose; a pH of 7.4 is established with 1 M KOH). […] The pH recovery was started by the addition of 90 μl of Na^+-containing buffer (133.8 mM NaCl, 4.7 mM KCl, 1.25 mM CaCl2, 1.25 mM MgCl2, 0.97 mM Na2HPO4, 0.23 mM NaH2PO4, 10 mM Hepes, 5 mM glucose; a pH of 7.4 is established with 1 M NaOH) in the analytical instrument (FLIPR, “Fluorometric Imaging Plate Reader”, Molecular Devices, Sunnyvale, Calif., USA). The BCECF fluorescence was determined at an excitation wavelength of 498 nm and the FLIPR emission filter 1 (band gap from 510 to 570 nm). The subsequent changes in fluorescence were registered for NHE and NHE5 for two minutes as a measure of the pH recovery. […]

NHE-1, sequence (P19634 whole entry, species assumed): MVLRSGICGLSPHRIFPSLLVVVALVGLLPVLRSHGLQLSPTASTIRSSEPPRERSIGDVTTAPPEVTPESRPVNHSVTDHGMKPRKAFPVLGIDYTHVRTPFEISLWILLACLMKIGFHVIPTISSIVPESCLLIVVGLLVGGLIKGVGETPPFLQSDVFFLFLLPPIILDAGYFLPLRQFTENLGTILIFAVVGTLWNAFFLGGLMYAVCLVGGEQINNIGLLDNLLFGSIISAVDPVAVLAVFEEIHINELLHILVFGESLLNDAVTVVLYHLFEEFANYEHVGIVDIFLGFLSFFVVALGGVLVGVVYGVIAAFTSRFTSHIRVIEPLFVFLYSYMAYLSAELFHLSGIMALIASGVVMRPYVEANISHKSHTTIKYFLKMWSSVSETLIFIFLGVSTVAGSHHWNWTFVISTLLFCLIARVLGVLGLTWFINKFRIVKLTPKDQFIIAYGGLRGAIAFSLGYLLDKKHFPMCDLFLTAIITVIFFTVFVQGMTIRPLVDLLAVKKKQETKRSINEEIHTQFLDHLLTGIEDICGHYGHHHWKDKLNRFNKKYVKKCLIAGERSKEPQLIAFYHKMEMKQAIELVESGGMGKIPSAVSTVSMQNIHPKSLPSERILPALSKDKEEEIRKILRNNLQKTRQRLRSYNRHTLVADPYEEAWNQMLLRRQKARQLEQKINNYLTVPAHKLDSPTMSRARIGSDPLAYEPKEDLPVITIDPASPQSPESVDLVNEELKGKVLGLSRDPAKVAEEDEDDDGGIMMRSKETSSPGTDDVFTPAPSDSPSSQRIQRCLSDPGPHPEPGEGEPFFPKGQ

Cc1csc(Cl)c1NC1=NCCN1 [tiamenidine]
inhibitory action on NHE-1 (NHE-1): no relevant inhibitory actions | inhibitory action on NHE-5 (NHE-5): no relevant inhibitory actions | inhibitory action on NHE (NHE [1]): no relevant inhibitory actions | inhibitory action on NHE-2 (NHE-2): no relevant inhibitory actions

CN1Cc2c(Cl)cc(Cl)cc2C(c2ccc(S(=O)(=O)N=C(N)N)cc2)C1 (stereo not shown) (as salt: hydrochloride) [Example 1, N-Diaminomethylene-4-(6,8-dichloro-2-methyl-1,2,3,4-tetrahydro-isoquinolin-4-yl)benzenesulfonamide, dihydrochloride]
melting point: 140 °C (dec.)

Clc1cccc(Cl)c1N=C1NCCN1 [Clonidine]
affinity for the adrenergic alpha-2 receptor [2]: high affinity | affinity for the imidazoline receptor (imidazoline receptor): high affinity

CN1Cc2c(Cl)cc(Cl)cc2C(c2ccc(S(=O)(=O)N=C(N)N)cc2)C1 (stereo not shown) [Example 1, N-Diaminomethylene-4-(6,8-dichloro-2-methyl-1,2,3,4-tetrahydro-isoquinolin-4-yl)benzenesulfonamide, dihydrochloride]
intrinsic effect on synaptic transmission (hippocampus sections; before tetanus): no intrinsic effect | potentiation of the EPSP 80 min after the stimulus (hippocampus sections; weak tetanus, 80 min after stimulus (control 113%)): 137 % of the baseline | IC50 (NHE [3]): 35 nM
